Measurements: publication PMC7048285, “Lack of an association between clinical INSTI-related body weight gain and direct interference with MC4 receptor (MC4R), a key central regulator of body weight” (PLoS ONE, 2020)

How the values were obtained:
[1] = molecular target: T1, human recombinant melanocortin MC4 receptor (Homo sapiens, UniProt P32245); test: Functional cellular cAMP TR-FRET assay, agonist mode; assay type: cell-based; conditions: for Agonist Fold-margin on human Cmax (unbound): agonist IC50 divided by clinical Cmax (unbound); for IC50: cAMP increase relative to 3 μM NDP-α-MSH control, CHO-K1 cells
T1 construct: host or cells: frozen, irradiated CHO-K1 cells

[2] = molecular target: T1, human recombinant melanocortin MC4 receptor; test: Functional cellular cAMP TR-FRET assay, antagonist mode (inhibition of 10 nM NDP-α-MSH response); assay type: cell-based; conditions: for Antagonist Fold-margin on human Cmax (unbound): antagonist IC50 divided by clinical Cmax (unbound)
[3] = Human clinical Cmax at recommended clinical dosage; assay type: in vivo; conditions: unbound (protein-free)
[4] = system: mice; conditions: daily oral, 4 weeks, AUC 16- to 30-fold clinical exposure at 50 mg; cited from earlier work
[5] = system: rats; conditions: daily oral, 26 weeks, AUC 16- to 30-fold clinical exposure at 50 mg; cited from earlier work
[6] = system: cynomolgous monkeys; conditions: daily oral, 39 weeks, AUC 16- to 30-fold clinical exposure at 50 mg; cited from earlier work
[7] = read-out: Human efficacious Cmax; total plasma, at recommended clinical dosage; cited from earlier work
[8] = human plasma; cited from earlier work
[9] = molecular target: T2, human MC4R (Homo sapiens, UniProt P32245); test: Biochemical radioligand binding assay ([125I]NDP-α-MSH) on membranes of transfected CHO cells; parameters: host or cells: CHO cells (membrane homogenates); conditions: for % inhibition of binding at 100 µM: 100 µM test compound, % inhibition of [125I]NDP-α-MSH specific binding; for IC50: radioligand binding, 0.05 nM [125I]NDP-α-MSH, 8 concentrations
[10] = molecular target: T2, human MC4R; parameters: method as in earlier work; conditions: 10 μM; previously reported; cited from earlier work

T1 sequence (P32245 whole entry): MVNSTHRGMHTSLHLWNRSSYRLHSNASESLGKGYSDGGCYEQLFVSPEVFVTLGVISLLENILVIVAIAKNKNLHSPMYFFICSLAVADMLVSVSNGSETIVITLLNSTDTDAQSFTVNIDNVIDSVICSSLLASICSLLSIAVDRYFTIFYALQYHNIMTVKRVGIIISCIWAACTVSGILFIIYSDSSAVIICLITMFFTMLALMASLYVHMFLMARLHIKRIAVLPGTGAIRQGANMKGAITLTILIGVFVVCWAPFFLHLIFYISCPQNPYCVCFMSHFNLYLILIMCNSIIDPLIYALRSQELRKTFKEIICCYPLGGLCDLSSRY
T2 sequence (P32245 whole entry): as above

Row | Compound | Agonist Fold-margin on human Cmax (unbound) [1] | IC50 [1] | IC50 [2] | Human efficacious unbound Cmax [3] | effects on body weight gain [4] | effects on body weight gain [5] | effects on body weight gain [6] | Cmax [7] | % unbound [8] | % inhibition of binding at 100 µM [9] | IC50 [9] | Antagonist Fold-margin on human Cmax (unbound) [2] | inhibition binding value [10] | fold more potent in MC4R antagonism than DTG ([2]; EVG versus DTG) | IC50 ([2]; inhibition of 10 nM NDP-α-MSH induced cAMP response, CHO-K1 cells)
1 | O=C(NCc1c(F)cc(F)cc1F)c1cn2c(c(O)c1=O)C(=O)N1[C@H]3CC[C@H](C3)O[C@@H]1C2 [BIC, bictegravir] | >2900 fold | > 100 µM | > 100 µM | 0.034 µM | no effects on body weight gain | no effects on body weight gain | no effects on body weight gain | 13.7 µM | 0.25% | 89% | 4.9 µM | – | – | – | –
2 | C[C@H]1CO[C@@H]2Cn3cc(C(=O)NCc4ccc(F)cc4F)c(=O)c(O)c3C(=O)N12 [CAB, cabotegravir] | >1200 fold | > 30 µM | > 30 µM | 0.025 µM | – | – | – | 15.7 µM | 0.16% | 86% | 0.46 µM | >1200 fold | – | – | –
3 | C[C@@H]1CCO[C@H]2Cn3cc(C(=O)NCc4ccc(F)cc4F)c(=O)c(O)c3C(=O)N12 [DTG, dolutegravir] | >1600 fold | > 100 µM | 69.4 µM | 0.062 µM | – | – | – | 8.8 µM | 0.7% | 91% | 1.7 µM | 1120 fold | 64% | – | –
4 | COc1cc2c(cc1Cc1cccc(Cl)c1F)c(=O)c(C(=O)O)cn2[C@H](CO)C(C)C [EVG, elvitegravir] | >13000 fold | > 300 µM | 2.75 µM | 0.0225 µM | – | – | – | 4.7 µM | 0.48% | 56% | 13 µM | 120 fold | – | approximately 25 fold | –
5 | Cc1nnc(C(=O)NC(C)(C)c2nc(C(=O)NCc3ccc(F)cc3)c(O)c(=O)n2C)o1 [RAL, raltegravir] | – | > 300 µM | > 300 µM | – | – | – | – | 15.7 µM | – | 55% | 78 µM | – | – | – | –
6 | agouti-related protein (SSRRCVRLHESCLGQQVPCCDPCATCYCRFFNAFCYCRKLGTAMNPCSRT; UniProt O00253 83-132, looked up) [AgRP] | – | – | – | – | – | – | – | – | – | – | – | – | – | – | 0.012 µM
